From patent publication US6893829B2, “Human leukocyte 12-lipoxygenase and its role in the pathogenesis of disease states” (City of Hope, priority 1992, dated 2005)

Tests used:
ERK = ERK activity in CHO-AT1a cells; format: cell-based, Chinese hamster; conditions: 12-HETE 10^−7M, peaks at 5 minutes and 3-4.5 hours
Method: ERK activity was evaluated by the substrate-SDS-polyacrylamide gel method described in Anal. Biochem., 183:139-143 (1989). Confluent cells in […] were made quiescent in serum-free medium and then treated with agonists for various time periods. The cells were then lysed in lysis buffer (1% NP40, 1% sodium deoxycholate, 0.1% SDS, 100 mM NaCl, 50 mM Tris, 10 mM EDTA, 1 mM EGTA, aprotinin, […], 0.1 mM PMSF and 1 mM sodium orthovanadate, pH 7.4). Lysates were centrifuged to pellet nuclei and the cell extracts ([…]) were subjected to electrophoresis on SDS-polyacrylamide gels (10%) containing myelin basic protein (0.5 mg/ml) as an ERK substrate. The SDS was then washed, followed by denaturation, renaturation and protein phosphorylation on the gel with [^32P] ATP.
(§1) It has been discovered that the administration of AII results in biphasic activation of MAP kinase (all of the MAP kinase experiments were conducted in CHO-AT1a cells—AII receptor AT1a cDNA transfected Chinese hamster ovary cells).

[1] = test system: VEGF protein in MCF-7 cells; assay: VEGF protein expression in breast cancer cells (immunoblot); format: cell-based, human
Method: FIG. 8 illustrates the dose-dependent effect of platelet-derived growth factor (PDGF) on vascular endothelial growth factor (VEGF) protein (42 kD) expression in MCF-7 breast cancer cells. Nearly confluent MCF-7 cells were serum starved for 24 hours by placing in DME medium+0.4% FCS and 0.2% BSA. This medium was then freshly replaced and the cells incubated for another 24 hours with PDGF. At the end of the incubation, the cell monolayers were washed with ice-cold PBS, scraped into PBS and pelleted by centrifugation. The cell pellets were then lysed and equal amounts of protein (50 μg) subjected to electrophoresis and immunoblotting to detect VEGF using a specific antibody from Santa Cruz Biotechnology. Detection was by a chemiluminiscent technique.
FIG. 9 illustrates the effect of epidermal growth factor (EGF) and the 12-lipoxygenase product 12-HETE on VEGF protein expression in the MCF-7 breast cancer cell line MCF-7. MCF-7 cells were treated with EGF and 12-HETE for 24 hours and VEGF protein identified as described in the legend to FIG. 8.

[2] = test system: smooth muscle cell migration; conditions: cited from earlier work
RINm5F cells = assay: DNA synthesis (3H-thymidine incorporation) in RINm5F cells; format: cell-based, rat; conditions: 24 hours, 12-HETE 10^−9M
Method: FIG. 11 illustrates the effects of 12-LO products on DNA synthesis in the insulin-producing rat beta cell line, RINm5F. DNA synthesis was studied using ^3H-thymidine incorporation (luCi/ml) added for the last six hours (18-24 hours of experiment). The LO products were added to the cells in complete growth media for 24 hours.
Applicants have discovered that direct addition of the 12-LO products 12-S-HETE or 12-HPETE directly decreases cellular growth as reflected by decreased ^3H thymidine incorporation or DNA synthesis in the rat pure beta cell line RIN-M5F.

JAK1 and JAK2 = assay: JAK activity in CHO-AT1a cells (phosphotyrosine immunoprecipitation, JAK1/JAK2 immunoblot); format: cell-based, Chinese hamster; conditions: 12-HETE 10^−7M, 10 hours
Method: It has further been discovered that 12-HETE induces stimulation of JAK activity. CHO-AT1a cells were treated with 12-HETE (10^−7M) for 10 hours, immunoprecipitated with a phosphotyrosine antibody and immunoblotted using specific JAK1 and JAK2 antibodies.

[3] = test system: beta sub-unit of the human insulin receptor; assay: Insulin receptor phosphorylation in rat-1-fibroblasts containing the human insulin receptor; format: cell-based; conditions: 12-HETE 10^−7M
Method: 7. Baicalein, a selective 12-LO inhibitor, can prevent glucose-induced insulin resistance. To perform these studies, applicants cultured rat-1-fibroblasts that have been engineered to contain the human insulin receptor for ten days in high glucose (25 mM). For the last 24 hours, the cells were cultured with 10^−6M baicalein. The marked bands represent the phosphorylated beta sub-unit of the human insulin receptor (FIG. 23). As the band becomes lighter, it represents reduced insulin action. Lane 1 represents the insulin receptor phosphorylation in normal glucose (5.5 mM) vs the reduced insulin action in lane 5 (25 mM glucose).

[4] = test system: VEGF in vascular smooth muscle cells (VSMC); assay: VEGF protein, mRNA and secretion in VSMC (Western, Northern, EIA); format: cell-based, Porcine and human
Method: In addition to the work reflected in FIGS. 8-10, it has now been discovered that AII, 12-HETE and hyperglycemia (HG) increase VEGF production in vascular smooth muscle cells (VSMC). Porcine and human VSMC were cultured for at least two passages under normal glucose (NG, 5.5 mM) or under HG conditions. VEGF protein expression was determined by Western blotting and VEGF mRNA by Northern blots. HG alone increased the level of VEGF mRNA (2.8-fold) and protein (3.2-fold). […] In addition, HG increased the secretion of VEGF into the medium as measured by a specific EIA (56.2±4 ng/ml NG vs 73±5 HG, p<0.02).

MO binding to HAEC = assay: Monocyte binding to human aortic endothelial cells; format: cell-based; conditions: HAEC in 5.5 mM glucose, 10^−10M; control 66±6
Method: The rate of atherosclerosis is accelerated in humans with diabetes mellitus (DM). Applicants recently published evidence that high glucose (HG) exposure of human aortic endothelial cells (HAEC) selectively increases monocyte (MO) but not neutrophil binding (56). HG exposure to EC can increase arachidonic acid (AA) release and lipoxygenase (LO) production formation. In the current study, applicants evaluated the role of 12- and 15-LO products in MO binding to HAEC. Culture of HAEC in HG (25 mM) for two passages increased MO binding compared to cells maintained in 5.5 mM glucose (239±30 cells/field HG vs 111±7, p<0.01). Phenidone (10^−6M), an inhibitor of the 12-LO pathway (50 percent inhibition of HG-induced binding, p<0.05). […] 12(S)-HETE added to HAEC cultured in 5.5 mM glucose increased MO binding (66±6 cells/field control vs 114±4 12-HETE 10^−10M, p<0.01). […] In summary, (1) elevated glucose increases MO binding to HAEC and this effect can be reduced by blockade of the LO pathway; (2) 12 but not 15-LO products, can increase MO binding.

JNK = JNK activity in CHO-AT1a cells; format: cell-based, Chinese hamster
Method: The plasmid pGEX-cJun 1/79 (Dept. Pharmacol. UCSD, La Jolla) is a GST-cJun (1-79) expression vector encoding amino acids (1-79) of cJun. The GST fusion protein expression vector was transformed into E. Coli. Protein was induced with 0.1 mM IPTG and purified by affinity binding to glutathione-agarose beads. Unstimulated or stimulated cells were lysed into WCEB (25 mM HEPES, pH 7.7, 03.M Nacl, 15 mM MgCl2, 02.mM EDTA and 0.1% triton X-100). About 50 μg protein extract was incubated with GST-cJun+GSH agarose overnight at 4° C. Phosphorylation was carried out at 30° C. for 20 minutes in the presence of 20 mM HEPES, pH 7.5, 20 mM b-glycerophosphate, 10 mM p-nitrophenolphosphate, 10 mM MgCl2, 10 mM DDT, 50 μg Na3VO4, 20 μM ATP (cold) and about 0.5 μl of new gamma ^32P-ATP. After boiling with electrophoresis sample buffer, the supernatants were analyzed on 12% SDS-PAGE. JNK activity was also measured by immunoprecipitation method using an anti-JNK antibody (Parmingen Co., San Diego) and then activities were measured using 2 μg of GST-cJun (1-79) as substrate as described in Cell, 81:1147-1157 (1995).
as §1

[5] = test system: leukocyte-type 12-LO in PVSMC; assay: 12-LO activity, mRNA and protein in PVSMC; format: cell-based, porcine; conditions: 24 hours; for increase in 12-HETE HPLC peak (12-LO enzyme activity): 2.5 ng/ml; for 12-LO mRNA expression in PVSMC: FIG. 14
Method: FIG. 14A illustrates the dose-dependent effect of the cytokine interleukin-1β on 12-LO mRNA expression in porcine aortic smooth muscle cells (PVSMC). Confluent PVSMC growth in normal glucose medium was serum depleted for 24 hours by placing in medium+0.2% BSA+0.4% FCS. This medium was then freshly replaced along with IL-1β and the cells incubated for a further 24 hours. At the end of the incubation, total RNA was extracted from the cells using RNA-STAT. This RNA was the subjected to reverse-transcriptase polymerase chain reaction (RT-PCR) to detect and quantitate leukocyte-type 12-LO mRNA (333 bp PCR product, upper panel) using our well established techniques. The expression of GAPDH mRNA 284 bp, lower panel) was used as an internal control for PCR and for quantitation.
FIG. 14B illustrates the effect of the cytokine IL-4 on 12-LO mRNA expression in PVSMC. The ells were treated for 24 hours with IL-4 and 12-LO mRNA quantitated as described in the legend to FIG. 14A. It is clearly seen that IL-4 also increases 12-LO mRNA expression similar to IL-1β.
FIG. 14C illustrates the effect of the cytokine IL-8 on 12-LO mRNA expression in PVSMC. The cells were treated for 24 hours with IL-8 and 12-LO mRNA quantitated as described under legend 14A.
(§2) The cells were cultured in DME (normal glucose) and treated for 24 hours±cytokines in medium containing 0.2% BSA and 0.4% serum. Intracellular 12-LO enzyme activity was measured by HPLC, leukocyte-type 12-LO protein expression by immunoblotting and 12-LO mRNA by a specific reverse transcriptase polymerase chain reaction (RT-PCR). […] Treatment with these cytokines (0.5-5 ng/ml) also led to an increase (1.4-2.5-fold) in 12-LO protein expression 72 kD). In addition, all three cytokines (2.5 ng/ml) could induce a significant increase in PVSMC DNA synthesis (1.280.08, 1.67±0.11 and 1.3±0.07 fold increase in ^3H thymidine incorporation with IL-1, -4, and -8 respectively, p<0.01).

PVSMC = PVSMC DNA synthesis (3H thymidine incorporation); format: cell-based, porcine; conditions: 2.5 ng/ml
Method: as §2

leukocyte 12-LO = leukocyte 12-LO (Sus scrofa, UniProt P16469); conditions: reference 55; cited from earlier work
Chain of leukocyte 12-LO (P16469 whole entry): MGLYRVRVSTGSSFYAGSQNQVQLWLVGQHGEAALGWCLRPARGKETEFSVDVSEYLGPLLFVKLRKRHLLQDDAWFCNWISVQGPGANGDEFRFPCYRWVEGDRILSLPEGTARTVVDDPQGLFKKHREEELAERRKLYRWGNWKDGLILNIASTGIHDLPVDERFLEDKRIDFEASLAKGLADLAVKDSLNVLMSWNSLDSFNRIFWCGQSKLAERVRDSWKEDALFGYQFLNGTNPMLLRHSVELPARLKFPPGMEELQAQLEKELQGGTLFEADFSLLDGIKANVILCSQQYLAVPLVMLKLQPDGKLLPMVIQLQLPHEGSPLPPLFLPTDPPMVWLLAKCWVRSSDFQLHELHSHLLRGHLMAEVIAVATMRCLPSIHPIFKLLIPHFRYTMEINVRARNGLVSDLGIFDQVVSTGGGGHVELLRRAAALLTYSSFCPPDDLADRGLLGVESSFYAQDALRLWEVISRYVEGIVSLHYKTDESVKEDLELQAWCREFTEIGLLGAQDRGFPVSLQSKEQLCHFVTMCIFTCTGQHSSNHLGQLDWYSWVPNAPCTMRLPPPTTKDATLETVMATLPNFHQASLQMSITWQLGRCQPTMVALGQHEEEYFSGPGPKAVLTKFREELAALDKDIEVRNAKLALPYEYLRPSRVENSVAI

VEGF protein in AIHSMC = assay: VEGF protein expression in immortalized human aortic smooth muscle cell line (AIHSMC); format: cell-based; conditions: five hours
Method: FIG. 10 illustrates the effect of a 12-lipoxygenase product 12-HPETE on VEGF protein (42 kD) expression in an immortalized human aortic smooth muscle cell line (AIHSMC). The cells were serum starved for 24 hours and then placed in fresh medium along with 12-HPETE. Cells were incubated for five hours and VEGF protein was then identified in cell lysed as described in the legend to FIG. 8.

[6] = test system: 12-LO product formation in PVSMC; assay: 12-HETE in PVSMC cultured in glucosamine (RIA); format: cell-based, porcine; conditions: glucosamine 7.5 mM
Method: Porcine vascular smooth muscles cells (PVSMC) were cultured in the presence of glucosamine (7.5 mM) for 24 hours. New media was then added with glucosamine (7.5 mM) for 25 minutes. The cells and media above the cells were collected and 12-HETE was measured using RIA. A very large increase in 12-HETE release into the media in cells cultured in glucosamine compared to those in normal glucose (6.48±1.2 pg/ml 12-HETE release in normal glucose vs. 20.6±3.6 pg/ml released in glucosamine n=4) was observed. Furthermore, cell associated 12-HETE was higher in glucosamine treated cells (735.9±67 pg/cell incubate normal glucose vs. 1225±112 pg in glucosamine).

Molecule: CCCCC/C=C\C[C@@H](O)/C=C/C=C\C/C=C\CCCC(=O)O [12-HETE, 12-Hydroxyeicosatetraenoic Acid]
- stimulation of ERK activity (ERK): biphasic stimulation
- VEGF protein expression ([1]; MCF-7, 24 hours): more potent than EGF
- VEGF protein expression ([1]; MCF-7 and MDA MB, 12-HETE 10^−7M and 10^−6M): increases VEGF protein expression
- lowest concentration leading to smooth muscle cell migration [2]: 10^−12 M
- 3H-thymidine incorporation (DNA synthesis) (RINm5F cells): reduced
- JAK activity (JAK1 and JAK2): increased JAK activity
- basal insulin receptor phosphorylation [3]: did not directly alter
- insulin-induced receptor phosphorylation of the beta subunit [3]: markedly reduced
- increase in VEGF secretion (EIA) [4]: 1.4 fold
- expression of VEGF protein and mRNA ([4]; 12-HETE 10^−8M and 10^−7M, 4 hours, NG and HG): increased the expression
- MO binding (MO binding to HAEC): 114±4 cells/field
- stimulation of JNK activity, first peak (JNK; 12-HETE 10^−7M, 30 minutes): 2-3 fold
- stimulation of JNK activity, second peak (JNK; 12-HETE 10^−7M, 3 hours): 2.5-5 fold
- lowest concentration stimulating JNK activity (JNK; FIG. 29): 10^−9 M

Molecule: IL-8: cytokine IL-8
- increase in 12-HETE HPLC peak (12-LO enzyme activity) [5]: 36%
- 12-LO mRNA expression in PVSMC [5]: dose-dependent increase
- increase in 3H thymidine incorporation (PVSMC): 1.3±0.07 fold

Molecule: C=C[C@H](O)C#CC#CC/C=C\CCCCCCC [Panaxynol]
- inhibition of leukocyte 12-LO (leukocyte 12-LO): relatively selective inhibitor

Molecule: CCCCC/C=C\CC(/C=C/C=C\C/C=C\CCCC(=O)O)OO (stereo not shown) [12-HPETE, 12-Hydroperoxyeicosatetraenoic Acid]
- 3H-thymidine incorporation (DNA synthesis) (RINm5F cells): reduced
- VEGF protein (42 kD) expression (VEGF protein in AIHSMC): causes an increase

Molecule: N[C@H]1C(O)O[C@H](CO)[C@@H](O)[C@@H]1O (stereo partly shown) [glucosamine]
- 12-HETE release into the media ([6]; normal glucose 6.48±1.2): 20.6 ± 3.6 pg/mL
- cell associated 12-HETE ([6]; normal glucose 735.9±67 pg/cell incubate): 1225 ± 112 pg

Molecule: IL-4: cytokine IL-4
- increase in 12-HETE HPLC peak (12-LO enzyme activity) [5]: 43%
- 12-LO mRNA expression in PVSMC [5]: increases
- increase in 3H thymidine incorporation (PVSMC): 1.67±0.11 fold
